# Experimental data: patent publication US11077106B2, “Cancer treatment” (Janssen Pharmaceutica NV, priority 2017, dated 2021)
# Where two headings read alike, the source gives them in different places.
# What was measured:
# [1] = system: metastatic or surgically unresectable urothelial cancer harboring select FGFR genetic alterations
# Experimental: Assessments of tumor responses as reported herein were performed according to Response Evaluation Criteria in Solid Tumors (RECIST) version 1.1.
# Included patients were adults with measurable urothelial cancer per Response Evaluation Criteria in Solid Tumors version 1.1.
# Patients were required to have at least 1 FGFR2/FGFR3 mutation or fusion per central lab testing of RNA from formalin-fixed, paraffin-embedded tumor samples, using a custom assay.
# Patients had progressed during or following at least 1 line of prior systemic chemotherapy or less than 12 months of neoadjuvant or adjuvant chemotherapy.
# The primary end point of this ongoing study is Objective Response Rate to the selected regimen (Regimen 3).
# Secondary end points include progression-free survival (PFS), duration of response (DoR), Overall Survival, safety, predictive biomarker evaluation, and pharmacokinetics.
# Patients were assessed for efficacy using radiographic imaging performed within 30 days of screening, once every 6 weeks for the first 3 months, once every 12 weeks for the next 9 months, then once every 4 to 6 months until disease progression. Tumor responses were assessed by investigators according to RECIST version 1.1 (Eisenhauer E A et al., Eur J Cancer, 2009, 45(2), 228-247).
# [2] = system: subjects with metastatic or surgically unresectable urothelial cancer
# Experimental: The study comprises a Screening Phase (molecular screening at any time prior to first dose and study screening within 30 days of first dose), a treatment phase, and a post-treatment follow-up phase. The treatment phase comprises the period from first dose until the end-of-treatment visit. The follow-up phase will extend until the subject has died, withdraws consent, is lost to follow-up, or the end of study, whichever comes first. Study treatment is administered on 28-day cycles. Prior to interim analysis 1, there were 2 treatment regimens.
# Safety was assessed continuously by the investigator and based on medical review of AE reports and the results of vital sign measurements, physical examinations, clinical laboratory tests, ECOG performance status, and other safety evaluations.
# [3] = Regimen 1, 10 mg intermittent dose (n = 33)
# [4] = Regimen 2, 6 mg continuous dose (n = 78)
# [5] = Regimen 3, 8 mg continuous dose (n = 59)
# [6] = Any grade, Regimen 2, 6 mg continuous dose (n = 78)
# [7] = Any grade, Regimen 3, 8 mg continuous dose (n = 96)
# [8] = Grade ≥ 3, Regimen 1, 10 mg intermittent dose (n = 33)
# [9] = Grade ≥ 3, Regimen 2, 6 mg continuous dose (n = 78)
# [10] = Grade ≥ 3, Regimen 3, 8 mg continuous dose (n = 96)
structure (smiles),measurement,setting,value
"COc1cc(OC)cc(N(CCNC(C)C)c2ccc3ncc(-c4cnn(C)c4)nc3c2)c1 [erdafitinib, N-(3,5-dimethoxyphenyl)-N′-(1-methylethyl)-N-[3-(1-methyl-1H-pyrazol-4-y)quinoxalin-6-yl]ethane-1,2-diamine]",patients with reduction in the sum of target lesion diameters,"[1]; 8 mg/d continuous erdafitinib (Regimen 3), 44/59 patients",75%
same,Complete response,[1]; [3],2 (6) n (%)
same,"Disease control rate, confirmed, n (%)",[1]; [3],24 (73) n (%)
same,"ORR, confirmed, n (%)",[1]; [3],8 (24) n (%)
same,Partial response,[1]; [3],6 (18) n (%)
same,"Progression-free survival, median, months",[1]; [3],4.0 months
same,Stable disease,[1]; [3],16 (49) n (%)
same,Complete response,[1]; [4],2 (3) n (%)
same,"Disease control rate, confirmed, n (%)",[1]; [4],57 (73) n (%)
same,"ORR, confirmed, n (%)",[1]; [4],27 (35) n (%)
same,Partial response,[1]; [4],25 (32) n (%)
same,"Progression-free survival, median, months",[1]; [4],5.1 months
same,Stable disease,[1]; [4],30 (39) n (%)
same,Complete response,[1]; [5],3 (5) n (%)
same,"Disease control rate, confirmed, n (%)",[1]; [5],48 (81) n (%)
same,"ORR, confirmed, n (%)",[1]; [5],25 (42) n (%)
same,Partial response,[1]; [5],22 (37) n (%)
same,"Progression-free survival, median, months",[1]; [5],5.6 months
same,Stable disease,[1]; [5],23 (39) n (%)
same,Median Progression Free Survival,[1]; across all dose regimens,5.1 months
same,confirmed Objective Response Rate,"[1]; across all dose regimens (n = 170), 95% CI, 28%-43%",35%
same,confirmed disease control rate,[1]; among all patients (n = 170),76%
same,response to treatment in relation to number of prior lines of treatment,"[1]; chemo-naïve, one prior line, or two or more prior lines of chemotherapy",independent of the number of prior lines treatment
same,median time to response,[1]; subset of 59 patients on Regimen 3,1.41 months
same,TRAE: Alopecia,[2]; [6],7 (9) n (%)
same,TRAE: Asthenia,[2]; [6],12 (15) n (%)
same,TRAE: Decreased appetite,[2]; [6],18 (23) n (%)
same,TRAE: Diarrhea,[2]; [6],34 (44) n (%)
same,TRAE: Dry eye,[2]; [6],2 (3) n (%)
same,TRAE: Dry mouth,[2]; [6],31 (40) n (%)
same,TRAE: Dry skin,[2]; [6],17 (22) n (%)
same,TRAE: Dysgeusia,[2]; [6],10 (13) n (%)
same,TRAE: Fatigue,[2]; [6],14 (18) n (%)
same,TRAE: Hyperphosphatemia,[2]; [6],48 (62) n (%)
same,TRAE: Lacrimation increased,[2]; [6],11 (14) n (%)
same,TRAE: Nail dystrophy,[2]; [6],7 (9) n (%)
same,TRAE: Onycholysis,[2]; [6],13 (17) n (%)
same,TRAE: Palmar-plantar erythrodysaesthesia syndrome,[2]; [6],12 (15) n (%)
same,TRAE: Paronychia,[2]; [6],11 (14) n (%)
same,TRAE: Stomatitis,[2]; [6],32 (41) n (%)
same,TRAE: Vision blurred,[2]; [6],5 (6) n (%)
same,TRAE: Alopecia,[2]; [7],22 (23) n (%)
same,TRAE: Asthenia,[2]; [7],13 (14) n (%)
same,TRAE: Decreased appetite,[2]; [7],23 (24) n (%)
same,TRAE: Diarrhea,[2]; [7],40 (42) n (%)
same,TRAE: Dry eye,[2]; [7],17 (18) n (%)
same,TRAE: Dry mouth,[2]; [7],40 (42) n (%)
same,TRAE: Dry skin,[2]; [7],26 (27) n (%)
same,TRAE: Dysgeusia,[2]; [7],32 (33) n (%)
same,TRAE: Fatigue,[2]; [7],19 (20) n (%)
same,TRAE: Hyperphosphatemia,[2]; [7],66 (69) n (%)
same,TRAE: Lacrimation increased,[2]; [7],8 (8) n (%)
same,TRAE: Nail dystrophy,[2]; [7],12 (13) n (%)
same,TRAE: Onycholysis,[2]; [7],10 (10) n (%)
same,TRAE: Palmar-plantar erythrodysaesthesia syndrome,[2]; [7],15 (16) n (%)
same,TRAE: Paronychia,[2]; [7],14 (15) n (%)
same,TRAE: Stomatitis,[2]; [7],45 (47) n (%)
same,TRAE: Vision blurred,[2]; [7],15 (16) n (%)
same,TRAE: Alopecia,[2]; [8],0 n (%)
same,TRAE: Asthenia,[2]; [8],2 (6) n (%)
same,TRAE: Decreased appetite,[2]; [8],0 n (%)
same,TRAE: Diarrhea,[2]; [8],1 (3) n (%)
same,TRAE: Dry eye,[2]; [8],0 n (%)
same,TRAE: Dry mouth,[2]; [8],0 n (%)
same,TRAE: Dry skin,[2]; [8],0 n (%)
same,TRAE: Dysgeusia,[2]; [8],0 n (%)
same,TRAE: Fatigue,[2]; [8],0 n (%)
same,TRAE: Hyperphosphatemia,[2]; [8],0 n (%)
same,TRAE: Lacrimation increased,[2]; [8],0 n (%)
same,TRAE: Nail dystrophy,[2]; [8],0 n (%)
same,TRAE: Onycholysis,[2]; [8],0 n (%)
same,TRAE: Palmar-plantar erythrodysaesthesia syndrome,[2]; [8],0 n (%)
same,TRAE: Paronychia,[2]; [8],0 n (%)
same,TRAE: Stomatitis,[2]; [8],1 (3) n (%)
same,TRAE: Vision blurred,[2]; [8],0 n (%)
same,TRAE: Alopecia,[2]; [9],0 n (%)
same,TRAE: Asthenia,[2]; [9],4 (5) n (%)
same,TRAE: Decreased appetite,[2]; [9],2 (3) n (%)
same,TRAE: Diarrhea,[2]; [9],0 n (%)
same,TRAE: Dry eye,[2]; [9],1 (1) n (%)
same,TRAE: Dry mouth,[2]; [9],2 (3) n (%)
same,TRAE: Dry skin,[2]; [9],0 n (%)
same,TRAE: Dysgeusia,[2]; [9],0 n (%)
same,TRAE: Fatigue,[2]; [9],1 (1) n (%)
same,TRAE: Hyperphosphatemia,[2]; [9],0 n (%)
same,TRAE: Lacrimation increased,[2]; [9],0 n (%)
same,TRAE: Nail dystrophy,[2]; [9],0 n (%)
same,TRAE: Onycholysis,[2]; [9],5 (6) n (%)
same,TRAE: Palmar-plantar erythrodysaesthesia syndrome,[2]; [9],0 n (%)
same,TRAE: Paronychia,[2]; [9],0 n (%)
same,TRAE: Stomatitis,[2]; [9],7 (9) n (%)
same,TRAE: Vision blurred,[2]; [9],1 (1) n (%)
same,TRAE: Alopecia,[2]; [10],0 n (%)
same,TRAE: Asthenia,[2]; [10],3 (3) n (%)
same,TRAE: Decreased appetite,[2]; [10],0 n (%)
same,TRAE: Diarrhea,[2]; [10],3 (3) n (%)
same,TRAE: Dry eye,[2]; [10],0 n (%)
same,TRAE: Dry mouth,[2]; [10],0 n (%)
same,TRAE: Dry skin,[2]; [10],0 n (%)
same,TRAE: Dysgeusia,[2]; [10],1 (1) n (%)
same,TRAE: Fatigue,[2]; [10],1 (1) n (%)
same,TRAE: Hyperphosphatemia,[2]; [10],2 (2) n (%)
same,TRAE: Lacrimation increased,[2]; [10],0 n (%)
same,TRAE: Nail dystrophy,[2]; [10],3 (3) n (%)
same,TRAE: Onycholysis,[2]; [10],1 (1) n (%)
same,TRAE: Palmar-plantar erythrodysaesthesia syndrome,[2]; [10],4 (4) n (%)
same,TRAE: Paronychia,[2]; [10],3 (3) n (%)
same,TRAE: Stomatitis,[2]; [10],8 (8) n (%)
same,TRAE: Vision blurred,[2]; [10],0 n (%)
same,patients discontinued as the result of TRAEs,[2]; across all dose regimens (22 patients),11%
same,treatment-related deaths,"[2]; across all dose regimens, safety population N=207",no treatment-related deaths
same,patients reporting grade 4 TRAEs,"[2]; across all dose regimens, safety population N=207 (n=1)",0.5%
same,patients reporting grade 3 TRAEs,"[2]; across all dose regimens, safety population N=207 (n=69)",33%
same,patients reporting TRAEs,"[2]; across all dose regimens, safety population N=207 (n=195)",94%
same,patients reporting retinopathy,"[2]; across all dose regimens, grade 2 [n=1] and grade 3 [n=1]",2 patients
